# Earlier results as cited in patent US20030187074A1, “Oral compositions for treatment of diabetes” (priority 2002, published 2003).
# Conditions: Physician's Desk Reference, 2001, page 2980
compound,measurement,value
CN(CCOc1ccc(CC2SC(=O)NC2=O)cc1)c1ccccn1 (stereo not shown) [rosiglitazone],half-life of elimination from the human body,3 to 4 h
